# Marks after values point to notes of the source that are not given here.
# Assays:
# [1] = system: elastin synthesis by fibroblasts; test: Assay of elastin synthesis by fibroblasts (sandwich ELISA of culture supernatants); format: cell-based, human
# Method: Normal human fibroblasts are inseminated. After anchoring for 24 h, TGF-β1 and 9.1% acetylated oligoglucuronans are placed in contact with the cells for 72 h. The culture supematants are removed and the amount of elastin is quantified by sandwich ELISA.
# TGF-β1 is used as the positive control for elastin synthesis.
# (§1) Analysis of variance is performed on the data (treated cases compared to untreated cases). If variances are equal, a Student t test for paired series is then performed on the mean values.
# Normal human fibroblasts are inseminated. After anchoring for 24 h, TGF-β1, oligoglucuronans I, oligoglucuronans II, oligoglucuronans IIII, glucuronic acid and galacturonic acid are placed in contact with the cells for 72 h. The culture supernatants are removed and the amount of elastin present is quantified by sandwich ELISA.
# TGF-β1 is used as a positive control for elastin.
# [2] = system: laminin synthesis by keratinocytes; test: Assay of laminin synthesis by keratinocytes (sandwich ELISA); format: cell-based, human; details: for Conclusion (laminin by keratinocytes) / % Change/untreated cells (laminin by keratinocytes): Table 9; for % Change/untreated cells (laminin by keratinocytes): n = 5
# Method: Human keratinocytes are inseminated into 24 well plates. After anchoring for 24 h, TGF-β1 and 9.1% acetylated oligoglucuronans are placed in contact with the cells for 72 h. The culture supernatants are removed and the amount of laminin is quantified by sandwich ELISA.
# TGF-β1 is used as a positive control for laminin synthesis.
# as §1
# (§2) Human keratinocytes are inseminated into well plates. After anchoring for 24 h, TGF-β1, oligoglucuronans I, oligoglucuronans II, oligoglucuronans III, glucuronic acid and galacturonic acid are placed in contact with the cells for 72 h. The culture supernatants are removed and the amount of laminin is quantified by sandwich ELISA.
# [3] = system: hyaluronic acid synthesis by keratinocytes; test: Assay of hyaluronic acid synthesis by keratinocytes (sandwich ELISA); format: cell-based, human; details: for % Change/untreated cells (hyaluronic acid synthesis by keratinocytes): 72 h
# Method: Human keratinocytes are inseminated. After anchoring for 24 h, retinoic acid and 9.1% acetylated oligoglucuronans are placed in contact with the cells for 72 h. The culture supernatants are removed and the amount of hyaluronic acid is quantified by sandwich ELISA.
# Retinoic acid is used at the positive control for hyaluronic acid synthesis.
# as §1
# as §2, with “retinoic acid,” for “TGF-β1,”, “hyaluronic acid” for “laminin”
# Retinoic acid is used as a positive control of hyaluronic acid.
# [4] = target: serum albumin incubated with fructose (Homo sapiens, UniProt P02768); test: Anti-glycation efficacy: inhibition of AGE (FFI compounds) production, fluorescence; format: biochemical; details: 0.03%; serum albumin 2% + 100 mM fructose, pH 7.4, 50° C., 1 week; N=2
# Chain of serum albumin incubated with fructose (P02768 25-609): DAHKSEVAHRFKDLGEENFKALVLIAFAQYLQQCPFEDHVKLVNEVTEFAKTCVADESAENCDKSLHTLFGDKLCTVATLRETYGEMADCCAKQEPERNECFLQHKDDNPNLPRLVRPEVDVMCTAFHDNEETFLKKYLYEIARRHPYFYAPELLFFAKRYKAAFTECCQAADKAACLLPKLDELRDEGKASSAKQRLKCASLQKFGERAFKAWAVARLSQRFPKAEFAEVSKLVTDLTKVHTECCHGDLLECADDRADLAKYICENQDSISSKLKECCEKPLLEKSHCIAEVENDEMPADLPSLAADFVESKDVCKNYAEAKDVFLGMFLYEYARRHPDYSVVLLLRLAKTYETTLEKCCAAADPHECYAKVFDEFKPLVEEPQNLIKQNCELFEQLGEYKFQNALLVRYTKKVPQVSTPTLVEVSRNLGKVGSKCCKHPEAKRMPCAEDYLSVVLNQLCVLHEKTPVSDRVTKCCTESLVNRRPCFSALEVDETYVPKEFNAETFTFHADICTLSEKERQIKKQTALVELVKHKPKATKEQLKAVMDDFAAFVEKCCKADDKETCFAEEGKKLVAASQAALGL
# Method: Principle: Non-enzymatic glycation between a protein and a reducing sugar is a slow spontaneous reaction which can be accelerated by temperature. An in vitro study model consisting of serum albumin incubated with fructose for one week was used. Glycation is recorded from the formation of fluorescent compounds, generally pentosides or FFI (furoyl-furanyl-imidazoles).
# Protocol: In our test, serum albumin (2%) and 100 mM fructose are incubated in a pH 7.4 phosphate buffer at 50° C. for 1 week. […] The glycation reference value (Control) for the glycation after 1 week is determined from the serum albumin and fructose incubation. The positive glycation inhibition Control is obtained by incubating in the presence of aminoguanidine 0.03% and the test incubations are performed in the presence of 9.1% acetylated oligoglucuronans at different concentrations.
# Results: For each fluorescence value measured the percentage change is calculated compared to the Control. The results shown in the table below are the mean values from N=2 tests.
# [5] = Table 7, Eq 0.04% oligoglucuronans I, 72 h, n = 5
# [6] = Eq 0.04% oligoglucuronans 1, 72 h
# [7] = Eq 0.06% oligoglucuronans 1, 72 h
# [8] = Table 8, Eq 0.04% oligoglucuronans I, n = 5
# [9] = Table 8, Eq 0.06% oligoglucuronans I, n = 5
molecule,measurement,setting,value
O=C[C@H](O)[C@@H](O)[C@@H](O)[C@H](O)C(=O)O [Galacturonic acid],Conclusion (elastin synthesis by fibroblasts),[1]; Table 7,=0
same,% Change/untreated cells (elastin synthesis by fibroblasts),[1]; [5],−1%
same,Conclusion (laminin by keratinocytes),[2],=0
same,% Change/untreated cells (laminin by keratinocytes),[2]; [6],+1%
same,% Change/untreated cells (laminin by keratinocytes),[2]; [7],−4%
same,Conclusion (hyaluronic acid synthesis by keratinocytes),[3]; Table 8,=0
same,% Change/untreated cells (hyaluronic acid synthesis by keratinocytes),[3]; [8],+7%
same,% Change/untreated cells (hyaluronic acid synthesis by keratinocytes),[3]; [9],+12%
"N=C(N)NN [Aminoguanidine, aminoguanidine]",Reduction in AGE % compared to Control,[4],67 +/− 2%
CC1=C(/C=C/C(C)=C/C=C/C(C)=C/C(=O)O)C(C)(C)CCC1 [Retinoic acid],% Change/untreated cells (hyaluronic acid synthesis by keratinocytes),"[3]; Table 2, 1 μM, N = 3",+144%*
same,% Change/untreated cells (hyaluronic acid synthesis by keratinocytes),"[3]; Table 8, 1 μM, n = 5",+136%*
TGF-β1: Positive control for elastin (fibroblast) and laminin (keratinocytes),% Change/untreated cells (elastin synthesis by fibroblasts),"[1]; Table 1, 10 ng/mL, 72 h contact, N = 2",+122%*
same,Conclusion (elastin synthesis by fibroblasts),[1]; Table 7,Positive
same,% Change/untreated cells (elastin synthesis by fibroblasts),"[1]; Table 7, 10 ng/mL, 72 h, n = 5",+106%*
same,% Change/untreated cells (laminin synthesis by keratinocytes),"[2]; Table 3, 10 ng/mL, 72 h, N = 3",+291%*
same,Conclusion (laminin by keratinocytes),[2],Positive
same,% Change/untreated cells (laminin by keratinocytes),"[2]; 10 ng/mL, 72 h",+255%*
O=C[C@H](O)[C@@H](O)[C@H](O)[C@H](O)C(=O)O [Glucuronic acid],Conclusion (elastin synthesis by fibroblasts),[1]; Table 7,=0
same,% Change/untreated cells (elastin synthesis by fibroblasts),[1]; [5],+32%
same,Conclusion (laminin by keratinocytes),[2],=0
same,% Change/untreated cells (laminin by keratinocytes),[2]; [6],−7%
same,% Change/untreated cells (laminin by keratinocytes),[2]; [7],−12%
same,Conclusion (hyaluronic acid synthesis by keratinocytes),[3]; Table 8,=0
same,% Change/untreated cells (hyaluronic acid synthesis by keratinocytes),[3]; [8],+10%
same,% Change/untreated cells (hyaluronic acid synthesis by keratinocytes),[3]; [9],+2%

# Source: patent publication US10159636B2, “Cosmetic composition containing acetylated oligoglucuronans” (Sederma, S.A.S., priority 2008, dated 2018)
